From patent US12534474B2, “Dihydrofuropyridine derivatives as rho-kinase inhibitors” (CHIESI FARMACEUTICI S.P.A., priority 2020, dated 2026)

Key:
Assay type in all cases: biochemical
[1] = target: PKA (Homo sapiens, UniProt P17612); assay: In vitro inhibitory activity assay for PKA, ADP-Glo, reported as selectivity ratio vs ROCK2; conditions: Ki for PKA divided by Ki of ROCK2 (Method B)
How it was run: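 PKA preincubated 30 min with compound (1% DMSO), then reacted 30 min at 25 °C with 10 μM ATP and 260 μM kemptide in Tris pH7.5/MgCl2/BSA/DTT; ADP-Glo luminescence. IC50 from constrained sigmoidal fit, converted to Ki by Cheng-Prusoff; value given as Ki(PKA)/Ki(ROCK2, Method B).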

[2] = target: T1, ROCK2 (Homo sapiens, UniProt O75116); assay: In vitro Rho kinase inhibitory activity assay, ADP-Glo, Method A (ATP 10 μM); conditions: read-out: Method A ROCK 2 (Ki)
Method: (§1) In Vitro Inhibitory Activity Assay Description (Method A)
(§2) The effectiveness of compounds of the present invention to inhibit Rho kinase activity can be determined in a 10 μL assay containing 40 mM Tris pH7.5, 20 mM MgCl2 0.1 mg/mL BSA, 50 μM DTT and 2.5 μM peptide substrate (Myelin Basic Protein) using an ADP-Glo kit (Promega). Compounds were dissolved in DMSO such that the final concentration of DMSO was 1% in the assay. All reactions/incubations are performed at 25° C. Compound (2 μL) and either Rho kinase 1 or 2 (4 μL) were mixed and incubated for 30 min. Reactions were initiated by addition of ATP (4 μL) such that the final concentration of ATP in the assay was 10 μM. After a 1 hour incubation 10 μL of ADP-Glo Reagent was added and after a further 45 minute incubation 20 μL of Kinase Detection Buffer was added and the mixture incubated for a further 30 minutes. The luminescent signal was measured on a luminometer. […] Compounds were tested in dose-response format and the inhibition of kinase activity was calculated at each concentration of compound. To determine the IC50 (concentration of compound required to inhibit 50% of the enzyme activity) data were fit to a plot of % inhibition vs Log10 compound concentration using a sigmoidal fit with a variable slope and fixing the maximum to 100% and the minimum to 0%. To determine the Ki values the Cheng-Prusoff equation was utilized (Ki=IC50/(1+[S]/Km).

[3] = target: T2, ROCK1 (Homo sapiens, UniProt Q13464); assay: as above; conditions: read-out: Method A ROCK 1 (Ki)
Method: as §1, §2

[4] = target: T1, ROCK2; assay: In vitro Rho kinase inhibitory activity assay, ADP-Glo, Method B (ATP 200 μM); conditions: read-out: Method B ROCK 2 (Ki)
How it was run: (§3)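 Enzyme preincubated 30 min with compound in 40 mM Tris pH 7.5, 20 mM MgCl2, 0.1 mg/mL BSA, 50 μM DTT, 2.5 μM myelin basic protein, 1% DMSO, 25 °C; 1 h reaction at 200 μM ATP. ADP-Glo luminescence; IC50 from variable-slope sigmoidal fit (0–100% fixed), Ki via Cheng-Prusoff.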

[5] = target: T2, ROCK1; assay: as above; conditions: read-out: Method B ROCK 1 (Ki)
How it was run: as §3

T2 sequence (Q13464 whole entry): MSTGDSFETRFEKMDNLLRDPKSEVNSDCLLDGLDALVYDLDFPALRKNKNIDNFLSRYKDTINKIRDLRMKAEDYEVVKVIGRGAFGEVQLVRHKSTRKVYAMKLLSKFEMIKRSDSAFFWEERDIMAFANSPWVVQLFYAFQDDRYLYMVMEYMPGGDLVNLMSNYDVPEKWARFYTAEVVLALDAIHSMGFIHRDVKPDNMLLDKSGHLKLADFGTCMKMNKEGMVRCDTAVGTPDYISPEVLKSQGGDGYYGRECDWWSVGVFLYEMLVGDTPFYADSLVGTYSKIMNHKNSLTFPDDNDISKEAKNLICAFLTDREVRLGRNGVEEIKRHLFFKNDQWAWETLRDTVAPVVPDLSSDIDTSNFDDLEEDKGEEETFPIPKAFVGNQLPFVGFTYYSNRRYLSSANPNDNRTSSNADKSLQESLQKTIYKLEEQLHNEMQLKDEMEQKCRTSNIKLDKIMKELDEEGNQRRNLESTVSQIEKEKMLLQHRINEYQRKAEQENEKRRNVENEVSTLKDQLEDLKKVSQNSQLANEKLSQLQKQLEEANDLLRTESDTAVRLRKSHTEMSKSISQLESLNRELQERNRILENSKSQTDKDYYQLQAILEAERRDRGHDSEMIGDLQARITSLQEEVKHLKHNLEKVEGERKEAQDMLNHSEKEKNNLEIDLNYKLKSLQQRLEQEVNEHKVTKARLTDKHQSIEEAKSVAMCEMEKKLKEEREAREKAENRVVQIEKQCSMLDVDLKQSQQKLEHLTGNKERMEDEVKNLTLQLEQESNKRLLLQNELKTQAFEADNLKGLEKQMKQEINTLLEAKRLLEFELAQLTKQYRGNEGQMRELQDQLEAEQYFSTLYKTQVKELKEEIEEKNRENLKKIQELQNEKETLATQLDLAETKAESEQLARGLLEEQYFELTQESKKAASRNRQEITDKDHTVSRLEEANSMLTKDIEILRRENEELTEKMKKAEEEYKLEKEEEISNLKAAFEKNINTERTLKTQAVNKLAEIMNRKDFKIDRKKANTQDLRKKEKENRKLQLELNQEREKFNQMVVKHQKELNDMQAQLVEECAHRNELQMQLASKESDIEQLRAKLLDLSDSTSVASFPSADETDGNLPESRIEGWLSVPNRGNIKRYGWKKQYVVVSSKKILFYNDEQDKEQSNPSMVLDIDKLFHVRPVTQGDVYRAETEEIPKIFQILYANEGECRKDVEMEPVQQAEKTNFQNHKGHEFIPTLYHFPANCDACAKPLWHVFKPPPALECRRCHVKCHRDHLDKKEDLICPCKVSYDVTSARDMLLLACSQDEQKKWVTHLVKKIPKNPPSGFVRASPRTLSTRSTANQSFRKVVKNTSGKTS
T1 sequence (O75116 whole entry): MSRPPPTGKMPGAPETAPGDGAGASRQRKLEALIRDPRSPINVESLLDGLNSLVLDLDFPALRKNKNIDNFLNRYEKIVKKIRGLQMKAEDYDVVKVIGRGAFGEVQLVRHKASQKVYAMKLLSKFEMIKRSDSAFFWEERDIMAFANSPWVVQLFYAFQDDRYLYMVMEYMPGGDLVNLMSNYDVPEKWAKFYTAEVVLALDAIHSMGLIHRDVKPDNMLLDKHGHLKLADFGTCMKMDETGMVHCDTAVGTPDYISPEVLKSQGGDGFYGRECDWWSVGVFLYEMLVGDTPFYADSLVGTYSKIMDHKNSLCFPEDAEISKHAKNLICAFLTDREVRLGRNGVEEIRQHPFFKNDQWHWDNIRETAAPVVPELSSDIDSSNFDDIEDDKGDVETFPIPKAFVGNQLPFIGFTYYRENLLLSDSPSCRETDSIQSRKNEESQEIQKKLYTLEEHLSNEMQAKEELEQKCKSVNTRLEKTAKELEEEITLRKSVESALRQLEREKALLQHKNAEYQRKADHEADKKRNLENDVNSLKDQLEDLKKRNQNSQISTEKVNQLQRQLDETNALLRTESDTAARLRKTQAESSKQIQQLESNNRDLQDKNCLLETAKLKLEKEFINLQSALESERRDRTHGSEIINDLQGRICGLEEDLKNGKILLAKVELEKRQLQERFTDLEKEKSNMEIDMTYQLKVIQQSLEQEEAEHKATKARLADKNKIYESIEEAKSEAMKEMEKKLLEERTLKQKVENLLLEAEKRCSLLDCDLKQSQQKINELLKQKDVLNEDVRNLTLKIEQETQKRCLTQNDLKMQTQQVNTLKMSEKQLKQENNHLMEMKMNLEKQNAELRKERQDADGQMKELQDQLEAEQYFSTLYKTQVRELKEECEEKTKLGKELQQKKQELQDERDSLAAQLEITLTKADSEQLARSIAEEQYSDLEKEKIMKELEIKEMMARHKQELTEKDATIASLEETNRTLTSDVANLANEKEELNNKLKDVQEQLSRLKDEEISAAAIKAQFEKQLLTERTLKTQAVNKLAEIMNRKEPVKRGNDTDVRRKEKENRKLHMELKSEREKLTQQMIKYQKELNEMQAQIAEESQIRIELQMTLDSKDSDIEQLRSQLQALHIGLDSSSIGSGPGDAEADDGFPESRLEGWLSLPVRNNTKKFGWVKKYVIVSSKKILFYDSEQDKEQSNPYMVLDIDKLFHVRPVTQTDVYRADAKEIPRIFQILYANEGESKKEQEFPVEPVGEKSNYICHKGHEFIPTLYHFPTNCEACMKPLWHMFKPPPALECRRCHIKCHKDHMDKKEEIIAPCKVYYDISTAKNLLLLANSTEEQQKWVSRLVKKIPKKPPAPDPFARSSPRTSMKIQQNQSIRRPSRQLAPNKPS

Ratio (PKA/ROCK2) [1]: * (ratio<5)
Ki [2]: > 30 nM
Ki [3]: > 30 nM
Ki [4]: > 30 nM
Ki [5]: > 30 nM
Structure (SMILES): c1ccc(CNc2ncc(-c3ccncc3)c3c2CCO3)cc1 [Example A, N-Benzyl-7-(pyridin-4-yl)-2,3-dihydrofuro[3,2-c]pyridin-4-amine, reference compound]
